# Assay results from patent US20070128217A1 (priority 2003, published 2007).
# Key:
# [1] = test system: antibodies in sera from SARS patients (sera 1a, 1b, 2, 6, 37, 62, London, SARS-yellow, SARS-green); assay type: binding, human; design: Binding of serum 6 to linear peptides of protein X1 of SARS-CoV Urbani / Binding of serum 37 to linear peptides of protein X1 of SARS-CoV Urbani / Binding of serum 6 to looped/cyclic peptide (PEPSCAN-ELISA) / Binding of serum 37 to looped/cyclic peptide (PEPSCAN-ELISA) / Binding of serum 37 to looped/cyclic peptides of protein X1 of SARS-CoV Urbani / Binding of serum 6 to linear peptides of protein X2 / Binding of serum 37 to linear peptides of protein X2 / Binding of serum 37 to looped/cyclic peptides of protein X2 of SARS-CoV Urbani / Binding of serum 6 to linear peptides of protein M of SARS-CoV Urbani / Binding of serum 37 to linear peptides of protein M of SARS-CoV Urbani / Binding of serum 6 to looped/cyclic peptides of protein M of SARS-CoV Urbani / Binding of serum 37 to looped/cyclic peptides of protein M of SARS-CoV Urbani / Binding of serum 6 to linear peptides of protein X3 of SARS-CoV Urbani / Binding of serum 37 to linear peptides of protein X3 of SARS-CoV Urbani / Binding of serum 37 to looped/cyclic peptides of protein X3 of SARS-CoV Urbani / Binding of serum 6 to linear peptides of protein X4 of SARS-CoV Urbani / Binding of serum 37 to linear peptides of protein X4 of SARS-CoV Urbani / Binding of serum 37 to looped/cyclic peptides of protein X4 of SARS-CoV Urbani / Binding of serum 6 to linear peptides of protein X5 of SARS-CoV Urbani / Binding of serum 37 to linear peptides of protein X5 of SARS-CoV Urbani / Binding of serum 37 to looped/cyclic peptides of protein X5 of SARS-CoV Urbani / Binding of serum 6 to linear peptides of protein N of SARS-CoV Urbani / Binding of serum 37 to linear peptides of protein N of SARS-CoV Urbani / Binding of serum 6 to linear peptide (PEPSCAN-ELISA) / Binding of serum 1a to looped/cyclic peptides of protein N of SARS-CoV Urbani / Binding of serum 1b to looped/cyclic peptides of protein N of SARS-CoV Urbani / Binding of serum 2 to looped/cyclic peptides of protein N of SARS-CoV Urbani / Binding of serum 6 to looped/cyclic peptides of protein N of SARS-CoV Urbani / Binding of serum 37 to looped/cyclic peptides of protein N of SARS-CoV Urbani / Binding of serum 62 to looped/cyclic peptides of protein N of SARS-CoV Urbani / Binding of serum London to looped/cyclic peptides of protein N of SARS-CoV Urbani / Binding of serum SARS-green to looped/cyclic peptides of protein N of SARS-CoV Urbani: unit not given here
# [2] = test system: control sera (pooled serum of ten healthy LUMC hospital workers; commercial negative donor pooled serum from the Dutch bloodbank); assay type: binding, human; design: Binding of Control serum LUMC to linear peptides / Binding of Control serum Blood-bank to linear peptides / Binding of Control serum LUMC to looped peptides / Binding of Control Serum Blood-Bank to Looped peptides / Binding of Control serum LUMC to linear peptides of the protein M of SARS-CoV Urbani / Binding of Control serum Blood-bank to linear peptides of the protein M of SARS-CoV Urbani / Binding of Control serum LUMC to looped peptides of the protein M of SARS-CoV Urbani / Binding of Control Serum Blood-Bank to Looped peptides of the protein M of SARS-CoV Urbani: unit not given here
# [3] = test system: rabbit serum obtained by immunizing a rabbit with the SARS-CoV strain Frankfurt 1; assay type: binding; design: Binding of a rabbit serum to linear peptides / Binding of a rabbit serum to looped peptides / Rabbit serum linear peptides / Rabbit serum looped peptides / Binding of a rabbit serum to linear peptides of protein N of SARS-CoV Urbani (Rabbit serum linear peptides) / Binding of a rabbit serum to looped/cyclic peptides of protein N of SARS-CoV Urbani (Rabbit serum looped peptides): unit not given here
sequence,measurement,setting,value
VKDYVVVHGYFTEVY,Binding of serum 1a to linear peptides of protein X1 of SARS-CoV Urbani,[1],0.7
same,Binding of serum 1a to looped/cyclic peptides of protein X1 of SARS-CoV Urbani,[1],0.5
same,Binding of serum 1b to linear peptides of protein X1 of SARS-CoV Urbani,[1],0.6
same,Binding of serum 1b to looped/cyclic peptides of protein X1 of SARS-CoV Urbani,[1],0.4
same,Binding of serum 2 to linear peptides of protein X1 of SARS-CoV Urbani,[1],0.4
same,Binding of serum 2 to looped/cyclic peptides of protein X1 of SARS-CoV Urbani,[1],0.4
same,Binding of serum 6 to linear peptides of protein X1 of SARS-CoV Urbani,[1],0.4
same,Binding of serum 6 to looped/cyclic peptides of protein X1 of SARS-CoV Urbani,[1],0.2
same,Binding of serum 37 to linear peptides of protein X1 of SARS-CoV Urbani,[1],0.6
same,Binding of serum 37 to looped/cyclic peptides of protein X1 of SARS-CoV Urbani,[1],0.6
same,Binding of serum 62 to linear peptides of protein X1 of SARS-CoV Urbani,[1],0.5
same,Binding of serum 62 to looped/cyclic peptides of protein X1 of SARS-CoV Urbani,[1],0.5
same,Binding of serum London to linear peptides of protein X1 of SARS-CoV Urbani,[1],0.2
same,Binding of serum London to looped/cyclic peptides of protein X1 of SARS-CoV Urbani,[1],0.2
same,Binding of serum SARS-green to linear peptides of protein X1 of SARS-CoV Urbani,[1],0.2
same,Binding of serum SARS-green to looped/cyclic peptides of protein X1 of SARS-CoV Urbani,[1],0.2
same,Binding of serum SARS-yellow to linear peptides of protein X1 of SARS-CoV Urbani,[1],0.4
same,Binding of serum SARS-yellow to looped/cyclic peptides of protein X1 of SARS-CoV Urbani,[1],0.5
same,Binding of Control Serum Blood-Bank to Looped peptides,[2],0.5
same,Binding of Control serum Blood-bank to linear peptides,[2],0.5
same,Binding of Control serum LUMC to linear peptides,[2],0.5
same,Binding of Control serum LUMC to looped peptides,[2],0.6
same,Binding of a rabbit serum to linear peptides,[3],0.1
same,Binding of a rabbit serum to looped peptides,[3],0.6
HGYFTEVYYQLESTQ,Binding of serum 1a to linear peptides of protein X1 of SARS-CoV Urbani,[1],0.6
same,Binding of serum 1a to looped/cyclic peptides of protein X1 of SARS-CoV Urbani,[1],0.5
same,Binding of serum 1b to linear peptides of protein X1 of SARS-CoV Urbani,[1],0.4
same,Binding of serum 1b to looped/cyclic peptides of protein X1 of SARS-CoV Urbani,[1],0.4
same,Binding of serum 2 to linear peptides of protein X1 of SARS-CoV Urbani,[1],0.4
same,Binding of serum 2 to looped/cyclic peptides of protein X1 of SARS-CoV Urbani,[1],0.4
same,Binding of serum 6 to linear peptides of protein X1 of SARS-CoV Urbani,[1],0.3
same,Binding of serum 6 to looped/cyclic peptides of protein X1 of SARS-CoV Urbani,[1],0.3
same,Binding of serum 37 to linear peptides of protein X1 of SARS-CoV Urbani,[1],0.4
same,Binding of serum 37 to looped/cyclic peptides of protein X1 of SARS-CoV Urbani,[1],0.5
same,Binding of serum 62 to linear peptides of protein X1 of SARS-CoV Urbani,[1],0.4
same,Binding of serum 62 to looped/cyclic peptides of protein X1 of SARS-CoV Urbani,[1],0.5
same,Binding of serum London to linear peptides of protein X1 of SARS-CoV Urbani,[1],0.2
same,Binding of serum London to looped/cyclic peptides of protein X1 of SARS-CoV Urbani,[1],0.2
same,Binding of serum SARS-green to linear peptides of protein X1 of SARS-CoV Urbani,[1],0.2
same,Binding of serum SARS-green to looped/cyclic peptides of protein X1 of SARS-CoV Urbani,[1],0.3
same,Binding of serum SARS-yellow to linear peptides of protein X1 of SARS-CoV Urbani,[1],0.0
same,Binding of serum SARS-yellow to looped/cyclic peptides of protein X1 of SARS-CoV Urbani,[1],0.4
same,Binding of Control Serum Blood-Bank to Looped peptides,[2],0.5
same,Binding of Control serum Blood-bank to linear peptides,[2],0.4
same,Binding of Control serum LUMC to linear peptides,[2],0.3
same,Binding of Control serum LUMC to looped peptides,[2],0.5
same,Binding of a rabbit serum to linear peptides,[3],0.1
same,Binding of a rabbit serum to looped peptides,[3],0.5
VLAAVYRINWVTGGI,Binding of serum 1a to linear peptides of protein M of SARS-CoV Urbani,[1],0.8
same,Binding of serum 1a to looped/cyclic peptides of protein M of SARS-CoV Urbani,[1],0.6
same,Binding of serum 1b to linear peptides of protein M of SARS-CoV Urbani,[1],0.7
same,Binding of serum 1b to looped/cyclic peptides of protein M of SARS-CoV Urbani,[1],0.5
same,Binding of serum 2 to linear peptides of protein M of SARS-CoV Urbani,[1],0.7
same,Binding of serum 2 to looped/cyclic peptides of protein M of SARS-CoV Urbani,[1],0.6
same,Binding of serum 6 to linear peptides of protein M of SARS-CoV Urbani,[1],0.5
same,Binding of serum 6 to looped/cyclic peptides of protein M of SARS-CoV Urbani,[1],0.7
same,Binding of serum 37 to linear peptides of protein M of SARS-CoV Urbani,[1],0.6
same,Binding of serum 37 to looped/cyclic peptides of protein M of SARS-CoV Urbani,[1],0.6
same,Binding of serum 62 to linear peptides of protein M of SARS-CoV Urbani,[1],0.6
same,Binding of serum 62 to looped/cyclic peptides of protein M of SARS-CoV Urbani,[1],0.5
same,Binding of serum London to linear peptides of protein M of SARS-CoV Urbani,[1],0.4
same,Binding of serum London to looped/cyclic peptides of protein M of SARS-CoV Urbani,[1],0.2
same,Binding of serum SARS-green to linear peptides of protein M of SARS-CoV Urbani,[1],0.6
same,Binding of serum SARS-green to looped/cyclic peptides of protein M of SARS-CoV Urbani,[1],0.2
same,Binding of serum SARS-yellow to linear peptides of protein M of SARS-CoV Urbani,[1],0.2
same,Binding of serum SARS-yellow to looped/cyclic peptides of protein M of SARS-CoV Urbani,[1],0.6
same,Binding of Control Serum Blood-Bank to Looped peptides of the protein M of SARS-CoV Urbani,[2],0.8
same,Binding of Control serum Blood-bank to linear peptides of the protein M of SARS-CoV Urbani,[2],0.9
same,Binding of Control serum LUMC to linear peptides of the protein M of SARS-CoV Urbani,[2],1.0
same,Binding of Control serum LUMC to looped peptides of the protein M of SARS-CoV Urbani,[2],0.8
same,Rabbit serum linear peptides,[3],0.3
same,Rabbit serum looped peptides,[3],0.0
